Laboratory results: US20220323441A1, “THERAPEUTIC FOR GOUT OR HYPERURICEMIA” (Nippon Chemiphar Co., Ltd., priority 2019, published 2022)
Like-named read-outs stand apart in the source and are kept apart here.

Assays:
[1] = system: serum uric acid level; settings: febuxostat 40 mg; about 15 hours after the administration; cited from earlier work
[2] = Particle size distribution of amorphous Compound 14 (laser diffraction); format: physicochemical; settings: amorphous Compound 14, spray dried; dispersed in 0.2% Aerosol OT aqueous solution
Description: A volume average particle size (D50) of the obtained amorphous Compound 14 was measured with a Shimadzu laser diffraction type particle size distribution measuring device SALD-2200 using a dispersion obtained by adding about 2 mg of a sample to a 0.2% Aerosol OT aqueous solution and irradiating the solution with ultrasonic waves for 30 seconds for dispersion. Shimadzu WingSALD-2200 version 1.02 software was used for data collection and analysis. […] The volume average particle size (D50) of amorphous Compound 14 obtained from the particle size distribution was 2.949 μm.

[3] = system: serum uric acid level; assay: Example 1, action of lowering serum uric acid level in healthy adult males; format: in vivo
Description: The effect of gradually lowering the blood uric acid level which is achieved by administering the pharmaceutical composition provided by the present invention may be confirmed, for example, when a maximum rate of decrease in a blood uric acid level on the first day of the administration ([(pre-administration uric acid level−minimum post-administration uric acid level on first day of administration)/pre-administration uric acid level]×100) is about 35% or less (for example, 1 to 35% decrease, 10 to 30% decrease, 10 to 25% decrease, 10 to 20% decrease, or 15 to 25% decrease); and/or the maximum rate of decrease in a blood uric acid level on the seventh day of the administration ([(pre-administration uric acid level−minimum post-administration uric acid level on the seventh day of administration)/pre-administration uric acid level]×100) is about 55% or less (for example, 1 to 55% decrease, 10 to 50% decrease, 15 to 45% decrease, 20 to 45% decrease, 20 to 40% decrease, or 20 to 35% decrease), the maximum rates of decrease being determined by continuously administering the pharmaceutical composition provided by the present invention to a healthy adult (for example, a male) for 7 days and measuring the blood uric acid levels before and after the administration.
The blood uric acid level (blood uric acid concentration) may be measured by a known uricase-peroxidase method.
80 mg of Compound 14 was repeatedly administered to 6 healthy adult males once daily for 7 days using solid dispersion capsules of Formulation Example 1, and the action of lowering a serum uric acid level was examined. For comparative reference, the results are shown in FIG. 9 together with the result of a case described in Non Patent Literature 3 in which febuxostat (40 mg) was used.

volume average particle size (D50) [2] [μm]	Structure (SMILES)	maximum rate of decrease in a blood uric acid level on the first day of the administration [1]	course of serum uric acid level throughout the administration period ([3]; 20 mg once daily for 7 days, solid dispersion capsules of Formulation Example 1)	course of serum uric acid level throughout the administration period ([3]; 40 mg once daily for 7 days, capsules containing micronized Compound 14)	course of serum uric acid level throughout the administration period ([3]; 80 mg once daily for 7 days, solid dispersion capsules of Formulation Example 1)	maximum rate of decrease in a blood uric acid level on the seventh day ([3]; 80 mg once daily for 7 days, solid dispersion capsules of Formulation Example 1, about 8 hours after the administration)	maximum rate of decrease in a blood uric acid level on the first day of the administration ([3]; 80 mg once daily, solid dispersion capsules of Formulation Example 1, 6 healthy adult males, at 12 hours after the administration)
–	Cc1nc(-c2ccc(OCC(C)C)c(C#N)c2)sc1C(=O)O [febuxostat]	about 35%	–	–	–	–	–
2.949	N#Cc1cc(-c2nc3c(O)ncnc3s2)ccc1Oc1ccccc1 [Compound 14, 2-(3-Cyano-4-phenoxyphenyl)-7-hydroxythiazolo[5,4-d]pyrimidine]	–	gradually decreased over time	gradually decreased over time	gradually decreased over time	about 30%	about 17%
